Data as given in US8470384B2, “Oxalamide derivative as umami flavouring agent” (Givaudan S.A., priority 2010, dated 2013).

Tests used:
[1] = General finding on umami flavour quality; conditions: very low dosages; in contrast to many other non-MSG umami flavourants
[2] = tested on: professional panel composed of 2 women and 3 men; assay: Tasting of 0.3% NaCl solutions by a professional panel (Example 2); format: in vivo, human
Method: (§1) Two solutions were prepared:
A—a solution of 0.3% NaCl and 0.05% MSG
B—a solution of 0.3% NaCl and 3 ppm of N1-geranyl-N2-(2-(pyridin-2-yl)ethyl)oxalamide.
The samples were tasted by a professional panel composed of 2 women and 3 men aged between 30 and 60. The panel agreed that both solutions tasted umami.

[3] = tested on: professional panel composed of 2 women and 3 men; assay: Tasting of NaCl/MSG/ribonucleotide solutions with reduced MSG by a professional panel (Example 3); format: in vivo, human; conditions: solution B (0.5% NaCl, 0.05% MSG, 0.010% ribonucleotide mixture, 1.5 ppm compound) vs solution A (0.5% NaCl, 0.15% MSG, 0.025% ribonucleotide mixture)
Method: as §1
A—a solution of 0.5% NaCl, 0.15% MSG and 0.025% Ribonucleotide mixture
B—a solution of 0.5% NaCl, 0.05% MSG, 0.010% Ribonucleotide mixture and 1.5 ppm of N1-geranyl-N2-(2-(pyridin-2-yl)ethyl)oxalamide.
The samples were tasted by a professional panel composed of 2 women and 3 men aged between 30 and 60.

[4] = solution B (0.3% NaCl, 3 ppm compound) vs solution A (0.3% NaCl, 0.05% MSG)

## CC(C)=CCC/C(C)=C/CNC(=O)C(=O)NCCc1ccccn1 [the Umami Compound]
[1]
  umami flavour and its quality: clean, non-artificial taste

## CC(C)=CCC/C(C)=C/CNC(=O)C(=O)NCCc1ccccn1 [N1-geranyl-N2-(2-(pyridin-2-yl)ethyl)oxalamide]
[2]; [4]
  further taste attributes compared with solution A: more succulence and sweetness and had more lingering savoury notes
  umami strength compared with solution A: slightly stronger umami
[2]; solution B: 0.3% NaCl and 3 ppm of compound
  umami taste: tasted umami
[3]
  umami strength compared with solution A: equal umami strength

## N[C@@H](CCC(=O)O)C(=O)[O-].[Na+] [MSG, monosodium glutamate, reference compound]
[2]; solution A: 0.3% NaCl and 0.05% MSG
  umami taste: tasted umami
